The record followed here is ChEMBL document CHEMBL1132065, “Synthesis and biological activity of oxo-7H-benzo[e]perimidine-4-carboxylic acid derivatives as potent, nonpeptide corticotropin releasing factor (CRF) receptor antagonists” (Bioorg Med Chem Lett, 1999).

SMILES strings stand for the structures.

Assay [1] concerns the target T1, Corticotropin-releasing factor receptor 1 (Rattus norvegicus, UniProt P35353).
T1 sequence (P35353 whole entry): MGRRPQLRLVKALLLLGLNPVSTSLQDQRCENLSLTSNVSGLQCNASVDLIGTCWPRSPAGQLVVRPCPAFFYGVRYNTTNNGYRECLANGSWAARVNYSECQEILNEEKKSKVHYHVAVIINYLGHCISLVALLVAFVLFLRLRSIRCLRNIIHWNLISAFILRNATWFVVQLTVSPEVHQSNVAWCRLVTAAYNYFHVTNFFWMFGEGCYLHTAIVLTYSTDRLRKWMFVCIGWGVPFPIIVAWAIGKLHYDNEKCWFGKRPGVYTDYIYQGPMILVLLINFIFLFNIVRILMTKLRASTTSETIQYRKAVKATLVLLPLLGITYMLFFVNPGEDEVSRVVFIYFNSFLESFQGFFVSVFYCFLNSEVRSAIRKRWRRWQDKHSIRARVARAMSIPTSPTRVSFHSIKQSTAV
Description: Antagonistic activity against [125I]-Tyr-ovine CRF binding to Corticotropin releasing factor receptor 1.

For assay [2], the target named is T2, Corticotropin-releasing factor receptor 2 (Mus musculus, UniProt Q60748). The experiment in a line: Antagonistic activity against [125I]-Tyr-ovine CRF binding to Corticotropin releasing factor receptor 2 beta.
T2 sequence (Q60748 whole entry): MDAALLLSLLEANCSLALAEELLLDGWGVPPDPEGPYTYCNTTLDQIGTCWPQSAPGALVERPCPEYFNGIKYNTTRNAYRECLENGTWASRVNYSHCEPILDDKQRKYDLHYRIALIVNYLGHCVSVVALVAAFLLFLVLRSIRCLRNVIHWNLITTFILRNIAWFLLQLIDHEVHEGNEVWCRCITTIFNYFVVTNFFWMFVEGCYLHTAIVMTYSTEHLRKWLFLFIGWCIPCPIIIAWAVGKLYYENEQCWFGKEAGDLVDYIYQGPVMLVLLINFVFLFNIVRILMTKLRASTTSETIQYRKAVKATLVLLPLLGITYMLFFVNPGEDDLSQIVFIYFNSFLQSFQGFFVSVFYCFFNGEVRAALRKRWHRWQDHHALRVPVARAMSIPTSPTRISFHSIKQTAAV
Assay [3] addresses T2, Corticotropin-releasing factor receptor 2. Description: Antagonistic activity against [125I]-Tyr-ovine CRF binding to Corticotropin releasing factor receptor 2 beta (30% inhibition at 100 uM).
Assay [4] has as its target 5-hydroxytryptamine receptor 6 (Homo sapiens, UniProt P50406). The experiment in a line: Binding affinity against 5-hydroxytryptamine 6 receptor.
In assay [5] the target is 5-hydroxytryptamine receptor 7 (Homo sapiens, UniProt P34969). The experiment in a line: Binding affinity against 5-hydroxytryptamine 7 receptor.
Chain of 5-hydroxytryptamine receptor 7 (P34969 whole entry): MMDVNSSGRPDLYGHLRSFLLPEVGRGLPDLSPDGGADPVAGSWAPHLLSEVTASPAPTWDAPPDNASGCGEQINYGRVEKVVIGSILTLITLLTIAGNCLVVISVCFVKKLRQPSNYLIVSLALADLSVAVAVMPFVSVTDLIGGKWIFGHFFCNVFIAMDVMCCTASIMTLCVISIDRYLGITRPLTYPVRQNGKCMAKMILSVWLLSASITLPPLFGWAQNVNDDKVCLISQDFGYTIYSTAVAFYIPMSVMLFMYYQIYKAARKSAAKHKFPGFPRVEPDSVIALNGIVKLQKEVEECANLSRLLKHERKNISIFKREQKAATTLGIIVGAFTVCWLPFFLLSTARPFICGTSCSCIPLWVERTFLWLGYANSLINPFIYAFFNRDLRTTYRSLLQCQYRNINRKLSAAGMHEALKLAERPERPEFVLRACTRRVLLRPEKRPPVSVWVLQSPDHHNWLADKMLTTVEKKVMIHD
The target of a further assay is D(2) dopamine receptor (Homo sapiens, UniProt P14416). Description: Binding affinity against dopamine D2 receptor.
Chain of D(2) dopamine receptor (P14416 whole entry): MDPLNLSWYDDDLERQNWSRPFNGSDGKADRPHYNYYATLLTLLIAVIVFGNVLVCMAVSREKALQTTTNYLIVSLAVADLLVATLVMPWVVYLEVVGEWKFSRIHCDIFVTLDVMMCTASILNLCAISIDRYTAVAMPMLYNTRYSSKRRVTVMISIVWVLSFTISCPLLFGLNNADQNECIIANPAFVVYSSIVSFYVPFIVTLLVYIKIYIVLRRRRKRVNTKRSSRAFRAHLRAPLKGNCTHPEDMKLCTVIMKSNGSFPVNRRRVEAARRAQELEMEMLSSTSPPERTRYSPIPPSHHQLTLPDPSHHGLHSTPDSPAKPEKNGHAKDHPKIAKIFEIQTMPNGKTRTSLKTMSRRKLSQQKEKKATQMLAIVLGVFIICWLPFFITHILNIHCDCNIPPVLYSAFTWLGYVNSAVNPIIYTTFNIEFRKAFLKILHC
Assay [6] is described as follows: Binding affinity against Galanin receptor. Set-up: species or system Homo sapiens.
The nature of assay [7]: Binding affinity against Glucagon receptor using [125I]glucagon.
Assay [8] is described as follows: Binding affinity to Glp1 receptor using [125I]Glp-1 as radioligand.
Assay [9] has as its target T3, Neuropeptide Y receptor type 1 (Homo sapiens, UniProt P25929).
T3 sequence (P25929 whole entry): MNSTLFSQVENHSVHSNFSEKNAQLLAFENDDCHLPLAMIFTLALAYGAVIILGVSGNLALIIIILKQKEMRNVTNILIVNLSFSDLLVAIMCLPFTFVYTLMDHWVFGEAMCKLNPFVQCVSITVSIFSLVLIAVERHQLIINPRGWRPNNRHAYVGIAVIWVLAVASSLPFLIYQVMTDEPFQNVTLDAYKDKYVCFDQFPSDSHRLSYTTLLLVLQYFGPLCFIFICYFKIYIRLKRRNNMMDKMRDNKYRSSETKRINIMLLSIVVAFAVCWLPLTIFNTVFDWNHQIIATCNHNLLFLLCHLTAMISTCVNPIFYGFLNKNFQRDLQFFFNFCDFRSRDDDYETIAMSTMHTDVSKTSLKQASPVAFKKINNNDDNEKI
Description: Binding affinity against Neuropeptide Y receptor type 1 using [125I]PYY.

Chain of 5-hydroxytryptamine receptor 6 (P50406 whole entry): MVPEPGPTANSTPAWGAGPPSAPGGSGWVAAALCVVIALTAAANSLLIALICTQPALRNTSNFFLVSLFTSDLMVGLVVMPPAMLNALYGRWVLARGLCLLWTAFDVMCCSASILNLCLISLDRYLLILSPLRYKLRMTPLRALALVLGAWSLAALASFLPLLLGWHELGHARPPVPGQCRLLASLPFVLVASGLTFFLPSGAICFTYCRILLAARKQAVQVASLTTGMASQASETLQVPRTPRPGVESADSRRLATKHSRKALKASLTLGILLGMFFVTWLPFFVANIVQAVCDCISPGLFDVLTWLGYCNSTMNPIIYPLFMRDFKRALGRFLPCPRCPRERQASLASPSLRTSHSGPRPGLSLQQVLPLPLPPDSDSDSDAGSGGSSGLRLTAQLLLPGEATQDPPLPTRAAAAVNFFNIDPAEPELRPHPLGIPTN

What is called Ki is a dissociation constant, usually derived from enzyme kinetics or from competition with a known ligand. A higher Ki goes with weaker binding. Regarding `NCCNC(=O)c1ccc2c3c(ncnc13)-c1ccccc1C2=O`, the inhibitory constant (Ki) in assay [1] and in assay [2] was more than 10000 nM in each case.
For `NCCNC(=O)c1c2c(c3c(O)c4ccccc4c4ncnc1c34)=NCCN2`, the Ki in assay [1] was 2050 nM; in [2], 650 nM.
Turning to `NCCNC(=O)c1c2c(c3c(O)c4ccccc4c4ncnc1c34)=N[C@H]1CCCC[C@H]1N2`, the values for the inhibition constant (Ki) in assay [1] and in assay [2] were 270 nM and 830 nM, respectively.
In assay [3], `O=C(O)c1ccc2c3c(ncnc13)-c1ccccc1C2=O` yielded an inhibition constant (Ki) of more than 100000 nM.
With `N[C@@H]1CCCC[C@H]1NC(=O)c1c2c(c3c(O)c4ccccc4c4ncnc1c34)=N[C@H]1CCCC[C@@H]1N2`, the values for the Ki in assay [1] and in assay [2] were 180 nM and 86 nM, respectively.
For `NCCNC(=O)c1c2c(c3c4c(ncnc14)-c1ccccc1C3=O)N[C@H]1CCCC[C@@H]1N2`, in that order: 200 nM and 75 nM.
For the compound `N[C@H]1CCCC[C@@H]1NC(=O)c1c2c(c3c4c(ncnc14)-c1ccccc1C3=O)N[C@@H]1CCCC[C@H]1N2`, the inhibition constant Ki is more than 10000 nM in assay [4]; 1600 nM in [5]; 110 nM in assay [1]; 20 nM in [2]; 3200 nM on D(2) dopamine receptor; more than 10000 nM in assay [6]. Besides, the Ki in [7] is more than 10000 nM; in assay [8], more than 10000 nM; in assay [9], 4200 nM.
In assay [2], `CN(C)C(=O)c1ccc2c3c(ncnc13)-c1ccccc1C2=O` came in with a Ki of more than 10000 nM.
Take `N[C@H]1CCCC[C@H]1NC(=O)c1ccc2c3c(ncnc13)-c1ccccc1C2=O`: the Ki in assay [1] and in assay [2] was more than 10000 nM each time.
In the case of `N[C@@H]1CCCC[C@H]1NC(=O)c1ccc2c3c(ncnc13)-c1ccccc1C2=O`, the Ki in [1] and in assay [2] was more than 10000 nM in each case.
As to `NCCNC(=O)c1c2c(c3c(O)c4ccccc4c4ncnc1c34)=N[C@@H]1CCCC[C@H]1N2`, the results for the Ki in assay [1] and in assay [2] were 160 nM and 45 nM, respectively.
